Assay results: PMC12627627 (Nature Communications, 2025)
Where “and” joins values, the source holds several entries; their conditions need not be identical. Identical values can stand only once.

Experiments:
RyR1 R2163C = molecular target: T1, RyR1 R2163C (Oryctolagus cuniculus, UniProt P11716, R2163C); assay: Time-lapse [Ca2+]ER measurement, HEK293 cells expressing RyR1 R2163C; format: cell-based; conditions: for ER luminal [Ca2+] change (F/F0): Fig. 5D source data, RyR1-R2163C
T1 construct: expressed in transfected cells
Description: HEK293 cells stably expressing R-CEPIA1er and RyRs (WT RyR1, RyR1-W881A, RyR1-W995A, RyR1-R2163C, and WT RyR2)[26],[27] were used in this study. Briefly, the cells were seeded at a density of 2 × 10⁴ cells/well in a 96-well black, clear-bottom plate (Corning). Doxycycline (2 µg/mL) was added 12 h after seeding, and the medium was replaced 24 h later with HEPES-buffered Krebs solution (5 mM HEPES, pH 7.4; 140 mM NaCl; 5 mM KCl; 2 mM CaCl₂; 1 mM MgCl₂; and 11 mM glucose). Fluorescence measurements were conducted using a FlexStation 3 fluorometer (Molecular Devices) at 37 °C. The R-CEPIA1er was excited at 560 nm, emitted at 610 nm, and captured every 10 seconds over 300 seconds. […] The fluorescence changes (F/F₀) were calculated by dividing the average fluorescence of the last 100 seconds (F) by that of the first 100 seconds (F₀). All measurements were performed in triplicate.

R12 domain of RyR1 = molecular target: T2, R12 domain of RyR1 (Homo sapiens, UniProt P21817); assay: ITC, R12 domain of RyR1; format: binding
T2 construct: RyR1 854–1054, RyR2 865–1065, RyR3 853–1053; made in house; host or cells: E. coli BL21 (DE3)
T2 sequence (P21817 854-1054): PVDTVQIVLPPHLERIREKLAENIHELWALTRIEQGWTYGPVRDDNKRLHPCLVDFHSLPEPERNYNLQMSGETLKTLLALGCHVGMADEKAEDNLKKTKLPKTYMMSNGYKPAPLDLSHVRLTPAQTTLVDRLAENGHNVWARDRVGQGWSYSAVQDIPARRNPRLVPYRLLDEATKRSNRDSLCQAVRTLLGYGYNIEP
Description: (§1) The plasmids were subsequently transformed into E. coli BL21 (DE3) cells (NEB, USA) and cultured in Luria-Bertani (LB) media at 37 °C. Protein expression was induced with 0.4 mM isopropyl β-D-thiogalactoside (IPTG) when the optical density (OD)600 reached ~0.8, followed by incubation at 18 °C for 12 h. The cells were harvested via centrifugation at 5,000 × g for 15 min at 4 °C and homogenized in Buffer A (10 mM HEPES, pH 7.4, 250 mM KCl) supplemented with 25 µg/mL DNaseI, 25 µg/mL lysozyme, 1 mM phenylmethylsulfonyl fluoride (PMSF), and 20 mM imidazole. The homogenate was centrifuged at 12,000 × g for 45 min, and the supernatant was filtered through a syringe filter (0.22 µm).
(§2) Purified R12 domain protein from the three RyR isoforms, fused with hexahistidine-tagged MBP (HMT-R12) was dialyzed overnight at 4 °C in ITC buffer (200 mM HEPES, pH 7.4, 150 mM KCl). ITC experiments were performed using a PEAQ-ITC instrument (Malvern, UK) at 25 °C with a stirring speed of 750 rpm. […] For the ternary binding experiments, 500 μM or 5 mM AMP-PCP/ADP was preincubated with both the titrants and titrates. […] The data was fit to a one-site fitting model after background buffer subtraction. The RyR1 R12 mutants were generated using a QuikChange mutagenesis kit (Stratagene) according to the manufacturer’s protocol, with primer sequences listed in Supplementary Table 3.

R12 domain of RyR2 = molecular target: T3, R12 domain of RyR2 (Homo sapiens, UniProt Q92736); assay: ITC, R12 domain of RyR2; format: binding; conditions: absence or presence of AMP-PCP or ADP
T3 construct: RyR1 854–1054, RyR2 865–1065, RyR3 853–1053; made in house; host or cells: E. coli BL21 (DE3)
T3 sequence (Q92736 865-1065): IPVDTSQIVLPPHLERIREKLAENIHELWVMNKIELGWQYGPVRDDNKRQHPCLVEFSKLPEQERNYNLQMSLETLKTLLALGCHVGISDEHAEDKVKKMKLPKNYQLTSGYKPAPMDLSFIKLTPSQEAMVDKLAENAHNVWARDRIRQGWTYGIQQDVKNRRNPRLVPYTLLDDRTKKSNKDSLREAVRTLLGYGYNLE
Description: as §1, §2

R12 domain of RyR3 = molecular target: T4, R12 domain of RyR3 (Homo sapiens, UniProt Q15413); assay: ITC, R12 domain of RyR3; format: binding
T4 construct: RyR1 854–1054, RyR2 865–1065, RyR3 853–1053; made in house; host or cells: E. coli BL21 (DE3)
T4 sequence (Q15413 853-1053): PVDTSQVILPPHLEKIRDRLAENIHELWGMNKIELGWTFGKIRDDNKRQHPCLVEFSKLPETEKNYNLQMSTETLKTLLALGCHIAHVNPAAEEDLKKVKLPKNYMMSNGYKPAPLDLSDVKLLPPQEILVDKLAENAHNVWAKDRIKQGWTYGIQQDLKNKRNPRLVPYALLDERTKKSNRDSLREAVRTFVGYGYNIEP
Description: as §1, §2

O=C(C[C@@H](NCCCO)C(=O)O)Nc1ccc2ccccc2c1 [RI-2]
[Ca2+]ER change (F/F0) (RyR1 R2163C; 100 µM compound, compared with 2.5% DMSO, Fig. S10 source data, single replicates): 1.393 and 1.514 and 1.475 | ER luminal [Ca2+] change (F/F0) (RyR1 R2163C; RI-2 0.1 uM, single replicates): 0.9503 and 1.0903 and 0.9717 | ER luminal [Ca2+] change (F/F0) (RyR1 R2163C; RI-2 0.5 uM, single replicates): 0.9981 and 0.9736 and 1.043 | ER luminal [Ca2+] change (F/F0) (RyR1 R2163C; RI-2 1 uM, single replicates): 1.073 and 0.9956 and 0.9903 | ER luminal [Ca2+] change (F/F0) (RyR1 R2163C; RI-2 5 uM, single replicates): 1.035 and 0.9806 and 0.9738 | ER luminal [Ca2+] change (F/F0) (RyR1 R2163C; RI-2 10 uM, single replicates): 1.082 and 1.203 and 1.117 | ER luminal [Ca2+] change (F/F0) (RyR1 R2163C; RI-2 25 uM, single replicates): 1.365 and 1.221 and 1.3399 | ER luminal [Ca2+] change (F/F0) (RyR1 R2163C; RI-2 50 uM, single replicates): 1.514 and 1.709 and 1.462 | ER luminal [Ca2+] change (F/F0) (RyR1 R2163C; RI-2 75 uM, single replicates): 1.641 and 1.709 and 1.614 | ER luminal [Ca2+] change (F/F0) (RyR1 R2163C; RI-2 100 uM, single replicates): 1.752 and 1.723 and 1.637 | IC50 (RyR1 R2163C; HEK293 cells stably expressing RyR1 R2163C, ER Ca2+ fluorescence, dose-dependent): 28 µM | Kd (R12 domain of RyR1; RyR1 R12 + 500 µM ADP): 49.1 ± 50.1 µM | No of Sites (N) (R12 domain of RyR1; RyR1 R12 + 500 µM ADP): 0.605 ± 0.21 | ΔH (R12 domain of RyR1; RyR1 R12 + 500 µM ADP): -3.08 ± 0.20 kcal/mol | −TΔS (R12 domain of RyR1; RyR1 R12 + 500 µM ADP): -4.30 kcal/mol | Kd (R12 domain of RyR1; RyR1 R12 + 500 µM AMP-PCP): 1.75 ± 0.29 µM | No of Sites (N) (R12 domain of RyR1; RyR1 R12 + 500 µM AMP-PCP): 0.721 ± 0.12 | ΔH (R12 domain of RyR1; RyR1 R12 + 500 µM AMP-PCP): -5.47 ± 0.17 kcal/mol | −TΔS (R12 domain of RyR1; RyR1 R12 + 500 µM AMP-PCP): -2.39 kcal/mol | Kd (R12 domain of RyR1; RyR1 R12 + 5 mM ADP): 3.86 ± 0.975 µM | No of Sites (N) (R12 domain of RyR1; RyR1 R12 + 5 mM ADP): 0.912 ± 0.43 | ΔH (R12 domain of RyR1; RyR1 R12 + 5 mM ADP): -15.09 ± 11.60 kcal/mol | −TΔS (R12 domain of RyR1; RyR1 R12 + 5 mM ADP): 10.1 kcal/mol | Kd (R12 domain of RyR1; RyR1 R12 + 5 mM AMP-PCP): 0.56 ± 0.17 µM | No of Sites (N) (R12 domain of RyR1; RyR1 R12 + 5 mM AMP-PCP): 0.547 ± 0.43 | ΔH (R12 domain of RyR1; RyR1 R12 + 5 mM AMP-PCP): -7.05 ± 0.69 kcal/mol | −TΔS (R12 domain of RyR1; RyR1 R12 + 5 mM AMP-PCP): -0.11 kcal/mol | No of Sites (N) (R12 domain of RyR1; RyR1 R12, no nucleotide): 0.519 ± 0.25 | ΔH (R12 domain of RyR1; RyR1 R12, no nucleotide): -5.61 ± 0.73 kcal/mol | −TΔS (R12 domain of RyR1; RyR1 R12, no nucleotide): 0.944 kcal/mol | Kd (R12 domain of RyR1; RyR1 R12, no nucleotide, ITC 25 °C): 159 µM and 158 µM | binding to RyR2 R12 domain by ITC (R12 domain of RyR2): no detectable binding | Kd (R12 domain of RyR3; RyR3 R12 + 500 µM ADP): 28.6 ± 18.7 µM | No of Sites (N) (R12 domain of RyR3; RyR3 R12 + 500 µM ADP): 0.509 ± 0.54 | ΔH (R12 domain of RyR3; RyR3 R12 + 500 µM ADP): -6.40 ± 1.66 kcal/mol | −TΔS (R12 domain of RyR3; RyR3 R12 + 500 µM ADP): -0.27 kcal/mol | Kd (R12 domain of RyR3; RyR3 R12 + 500 µM AMP-PCP): 7.85 ± 2.69 µM | No of Sites (N) (R12 domain of RyR3; RyR3 R12 + 500 µM AMP-PCP): 0.604 ± 0.31 | ΔH (R12 domain of RyR3; RyR3 R12 + 500 µM AMP-PCP): -3.25 ± 0.40 kcal/mol | −TΔS (R12 domain of RyR3; RyR3 R12 + 500 µM AMP-PCP): -3.72 kcal/mol | Kd (R12 domain of RyR3; RyR3 R12 + 5 mM ADP): 12.9 ± 6.2 µM | No of Sites (N) (R12 domain of RyR3; RyR3 R12 + 5 mM ADP): 0.694 ± 0.42 | ΔH (R12 domain of RyR3; RyR3 R12 + 5 mM ADP): -11.9 ± 4.87 kcal/mol | −TΔS (R12 domain of RyR3; RyR3 R12 + 5 mM ADP): 5.75 kcal/mol | Kd (R12 domain of RyR3; RyR3 R12 + 5 mM AMP-PCP): 3.39 ± 0.83 µM | No of Sites (N) (R12 domain of RyR3; RyR3 R12 + 5 mM AMP-PCP): 0.508 ± 0.21 | ΔH (R12 domain of RyR3; RyR3 R12 + 5 mM AMP-PCP): -4.58 ± 0.28 kcal/mol | −TΔS (R12 domain of RyR3; RyR3 R12 + 5 mM AMP-PCP): -2.89 kcal/mol | No of Sites (N) (R12 domain of RyR3; RyR3 R12, no nucleotide): 0.970 ± 0.19 | ΔH (R12 domain of RyR3; RyR3 R12, no nucleotide): -16.2 ± 16.70 kcal/mol | −TΔS (R12 domain of RyR3; RyR3 R12, no nucleotide): 10.6 kcal/mol | Kd (R12 domain of RyR3; RyR3 R12, no nucleotide, ITC 25 °C): 178 ± 93.1 µM
